Each structure is given as a SMILES string.

A word on the melting point: it is the temperature of the solid-liquid transition.

Take `CC(=O)Oc1cc(Cl)nnc1Oc1c(C)cccc1C1CC1` [Compound No. 1151, 6-Chloro-3-(2-cyclopropyl-6-methylphenoxy)-4-pyridazinyl acetate]: the melting point fell in the range of 98 to 101 °C.

In turn, `CCC(=O)Oc1cc(Cl)nnc1Oc1c(C)cccc1C1CC1` [Compound No. 1160, 6-Chloro-3-(2-cyclopropyl-6-methylphenoxy)-4-pyridazinyl propionate] returned a melting point of 75 to 77 °C. As for `Cc1cccc(C2CC2)c1Oc1nnc(Cl)cc1OC(=O)C(C)C` [Compound No. 1172, 6-Chloro-3-(2-cyclopropyl-6-methylphenoxy)-4-pyridazinyl 2-methylpropanoate], the figure is 38 to 39 °C; as for `Cc1cccc(C2CC2)c1Oc1nnc(Cl)cc1OC(=O)CC(C)C` [Compound No. 1184, 6-Chloro-3-(2-cyclopropyl-6-methylphenoxy)-4-pyridazinyl 3-methylbutanoate], 71 to 74 °C; as for `Cc1cccc(C2CC2)c1Oc1nnc(Cl)cc1OC(=O)C(C)(C)C` [Compound No. 1207, 6-Chloro-3-(2-cyclopropyl-6-methylphenoxy)-4-pyridazinyl pivalate], 84 to 87 °C. Turning to `CCCCCCCCCCCCCCC(=O)Oc1cc(Cl)nnc1Oc1c(C)cccc1C1CC1` [Compound No. 1260, 6-Chloro-3-(2-cyclopropyl-6-methylphenoxy)-4-pyridazinyl pentadecanoate], the melting point fell in the range of 35 to 37 °C. On to `O=C(Oc1cc(Cl)nnc1Oc1ccccc1C1CC1)C1CC1` [Compound No. 1266, 6-Chloro-3-(2-cyclopropylphenoxy)-4-pyridazinyl cyclopropanecarboxylate], for which the melting point was 122 to 125 °C.

On to `Cc1ccccc1Oc1nnc(Cl)cc1OC(=O)c1ccccc1C` [Compound No. 1446, 6-Chloro-3-(2-methylphenoxy)-4-pyridazinyl 2-methylbenzoate], for which the melting point fell in the range of 91 to 93 °C.

As for `Cc1ccccc1C(=O)Oc1cc(Cl)nnc1Oc1ccccc1C1CCCCC1` [Compound No. 1455, 6-Chloro-3-(2-cyclohexylphenoxy)-4-pyridazinyl 2-methylbenzoate], the melting point is 89 to 91 °C. `Cc1ccccc1C(=O)Oc1cc(Cl)nnc1Oc1cccc(C(C)(C)C)c1` [Compound No. 1457, 3-(3-tert-Butylphenoxy)-6-chloro-4-pyridazinyl 2-methylbenzoate] returned a melting point of 63 to 64 °C. Molecule `COc1cccc(Oc2nnc(Cl)cc2OC(=O)c2ccccc2C)c1` [Compound No. 1458, 6-Chloro-3-(3-methoxyphenoxy)-4-pyridazinyl 2-methylbenzoate] gave a melting point of 66 to 67 °C. `Cc1ccc(C(C)C)c(Oc2nnc(Cl)cc2OC(=O)c2ccccc2C)c1` [Compound No. 1459, 6-Chloro-3-(2-isopropyl-5-methylphenoxy)-4-pyridazinyl 2-methylbenzoate] returned a melting point of 95 to 97 °C. `Cc1ccccc1C(=O)Oc1cc(Cl)nnc1Oc1cccc2ccccc12` [Compound No. 1461, 6-Chloro-3-(1-naphthyloxy)-4-pyridazinyl 2-methylbenzoate] came in with a melting point of 133 to 134 °C. The value for `COc1ccccc1C(=O)Oc1cc(Cl)nnc1Oc1ccccc1C` [Compound No. 1509, 6-Chloro-3-(2-methylphenoxy)-4-pyridazinyl 2-methoxybenzoate] was 114 to 116 °C; that for `Cc1ccc(C(=O)Oc2cc(Cl)nnc2Oc2ccccc2C)cc1` [Compound No. 1553, 6-Chloro-3-(2-methylphenoxy)-4-pyridazinyl 4-methylbenzoate] was 105 to 108 °C. The value for `Cc1ccc(C(=O)Oc2cc(Cl)nnc2Oc2c(C)cccc2C2CC2)cc1` [Compound No. 1566, 6-Chloro-3-(2-cyclopropyl-6-methylphenoxy)-4-pyridazinyl 4-methylbenzoate] was 77.5 to 78 °C; that for `Cc1cccc(C2CC2)c1Oc1nnc(Cl)cc1OC(=O)c1ccc(C(C)(C)C)cc1` [Compound No. 1575, 6-Chloro-3-(2-cyclopropyl-6-methylphenoxy)-4-pyridazinyl 4-tert-butylbenzoate] was 139 to 142 °C; that for `Cc1ccccc1Oc1nnc(Cl)cc1OC(=O)c1ccc(Cl)cc1Cl` [Compound No. 1603, 6-Chloro-3-(2-methylphenoxy)-4-pyridazinyl 2,4-dichlorobenzoate] was 81 to 82.5 °C. In turn, `CCOC(=O)Oc1cc(Cl)nnc1Oc1ccccc1C` [Compound No. 1706, 6-Chloro-3-(2-methylphenoxy)-4-pyridazinyl ethyl carbonate] displayed a melting point of 73 to 74 °C. As for `Cc1ccccc1Oc1nnc(Cl)cc1OC(=O)OCC(C)C` [Compound No. 1757, 6-Chloro-3-(2-methylphenoxy)-4-pyridazinyl isobutyl carbonate], the figure is 46 to 47 °C; as for `Cc1cccc(C2CC2)c1Oc1nnc(Cl)cc1OC(=O)OCC(C)C` [Compound No. 1770, 6-Chloro-3-(2-cyclopropyl-6-methylphenoxy)-4-pyridazinyl isobutyl carbonate], 72 to 74 °C; as for `Cc1ccccc1Oc1nnc(Cl)cc1OC(=O)N1CCCC1` [Compound No. 1924, 6-Chloro-3-(2-methylphenoxy)-4-pyridazinyl 1-pyrrolidinecarboxylate], 126 to 127 °C.

As for `Cc1cccc(C2CC2)c1Oc1nnc(Cl)cc1OC(=O)N1CCCC1` [Compound No. 1937, 6-Chloro-3-(2-cyclopropyl-6-methylphenoxy)-4-pyridazinyl 1-pyrrolidinecarboxylate], the melting point lay in the range of 115 to 118 °C. As for `CS(=O)(=O)Oc1cc(Cl)nnc1Oc1ccccc1C1CC1` [Compound No. 1985, 6-Chloro-3-(2-cyclopropylphenoxy)-4-pyridazinyl methanesulfonate], the figure is 162 to 172 °C; as for `CCS(=O)(=O)Oc1cc(Cl)nnc1Oc1c(C)cccc1C1CC1` [Compound No. 2034, 6-Chloro-3-(2-cyclopropyl-6-methylphenoxy)-4-pyridazinyl ethanesulfonate], 96 to 97 °C. Consider `CCCS(=O)(=O)Oc1cc(Cl)nnc1Oc1ccccc1C` [Compound No. 2038, 6-Chloro-3-(2-methylphenoxy)-4-pyridazinyl 1-propanesulfonate], for which the melting point lay within 72 to 73 °C.

Molecule `CCCS(=O)(=O)Oc1cc(Cl)nnc1Oc1c(C)cccc1C1CC1` [Compound No. 2051, 6-Chloro-3-(2-cyclopropyl-6-methylphenoxy)-4-pyridazinyl 1-propanesulfonate] displayed a melting point of 70.5 to 71.5 °C. The value for `Cc1cccc(C2CC2)c1Oc1nnc(Cl)cc1OS(=O)(=O)C(F)(F)F` [Compound No. 2106, 6-Chloro-3-(2-cyclopropyl-6-methylphenoxy)-4-pyridazinyl trifluoromethanesulfonate] was 64 to 67 °C; that for `Cc1ccccc1Oc1nnc(Cl)cc1OS(=O)(=O)c1ccccc1` [Compound No. 2147, 6-Chloro-3-(2-methylphenoxy)-4-pyridazinyl benzenesulfonate] was 91.5 to 92 °C. The value for `Cc1cccc(C2CC2)c1Oc1nnc(Cl)cc1OS(=O)(=O)c1ccccc1` [Compound No. 2176, 6-Chloro-3-(2-cyclopropyl-6-methylphenoxy)-4-pyridazinyl benzenesulfonate] was 105 to 106 °C. The value for `Cc1ccccc1Oc1nnc(Cl)cc1OS(=O)(=O)c1ccc(Cl)cc1` [Compound No. 2198, 6-Chloro-3-(2-methylphenoxy)-4-pyridazinyl 4-chlorobenzenesulfonate] was 93 to 94 °C; that for `CC(C)(C)c1ccccc1Oc1nnc(Cl)cc1OS(=O)(=O)c1ccc(Cl)cc1` [Compound No. 2200, 3-(2-tert-Butylphenoxy)-6-chloro-4-pyridazinyl 4-chlorobenzenesulfonate] was 83.5 to 84.5 °C; that for `Cc1ccc(S(=O)(=O)Oc2cc(Cl)nnc2Oc2ccccc2C)cc1` [Compound No. 2220, 6-Chloro-3-(2-methylphenoxy)-4-pyridazinyl 4-methylbenzenesulfonate] was 102 to 104 °C. As for `Cc1ccc(S(=O)(=O)Oc2cc(Cl)nnc2Oc2ccccc2C(C)C)cc1` [Compound No. 2222, 6-Chloro-3-(2-isopropylphenoxy)-4-pyridazinyl 4-methylbenzenesulfonate], the melting point lay in the range of 99 to 100 °C. `CCC(C)c1ccccc1Oc1nnc(Cl)cc1OS(=O)(=O)c1ccc(C)cc1` (centres unmarked) [Compound No. 2223, 3-(2-s-Butylphenoxy)-6-chloro-4-pyridazinyl 4-methylbenzenesulfonate]: the melting point fell in the range of 65 to 66 °C. With `Cc1ccc(S(=O)(=O)Oc2cc(Cl)nnc2Oc2ccccc2C(C)(C)C)cc1` [Compound No. 2224, 3-(2-tert-Butylphenoxy)-6-chloro-4-pyridazinyl 4-methylbenzenesulfonate], the melting point was in the range of 98 to 99 °C.

Take `Cc1ccc(S(=O)(=O)Oc2cc(Cl)nnc2Oc2ccccc2C2CCCCC2)cc1` [Compound No. 2230, 6-Chloro-3-(2-cyclohexylphenoxy)-4-pyridazinyl 4-methylbenzenesulfonate]: the melting point lay within 120 to 121 °C.

The molecule `Cc1ccc(S(=O)(=O)Oc2cc(Cl)nnc2Oc2ccccc2-c2ccccc2)cc1` [Compound No. 2231, 3-([1,1′-Biphenyl]-2-yloxy)-6-chloro-4-pyridazinyl 4-methylbenzenesulfonate] registered a melting point of 106 to 108 °C.

For the molecule `COc1ccccc1Oc1nnc(Cl)cc1OS(=O)(=O)c1ccc(C)cc1` [Compound No. 2232, 6-Chloro-3-(2-methoxyphenoxy)-4-pyridazinyl 4-methylbenzenesulfonate], the melting point was 153 to 157 °C. The value for `Cc1ccc(S(=O)(=O)Oc2cc(Cl)nnc2Oc2cccc(C(C)(C)C)c2)cc1` [Compound No. 2235, 3-(3-tert-Butylphenoxy)-6-chloro-4-pyridazinyl 4-methylbenzenesulfonate] was 56 to 57 °C; that for `COc1cccc(Oc2nnc(Cl)cc2OS(=O)(=O)c2ccc(C)cc2)c1` [Compound No. 2238, 6-Chloro-3-(3-methoxyphenoxy)-4-pyridazinyl 4-methylbenzenesulfonate] was 89 to 90 °C.

These data come from patent publication US7964531B2, “3-phenoxy-4-pyridazinol derivatives and herbicidal composition containing the same” (Mitsui Chemicals Agro, Inc., priority 2001, dated 2011).
